Data on 21 molecules can be found in ChEMBL document CHEMBL5584310, “Phenanthrenes from Juncus articulatus with Antibacterial and Biofilm Formation Inhibitory Activity” (J Nat Prod, 2024).

Structures are written as SMILES. Converted amounts (≈) assume the structure as drawn. A value given as a limit tells only on which side of the number the result lay.

What is called MIC is the least concentration at which growth counts as inhibited. Broadly, the IC50 is the midpoint of a concentration-inhibition curve.

Assay [1] has as its system Staphylococcus aureus. Briefly: Antibacterial activity against methicillin-resistant Staphylococcus aureus ATCC 33592 assessed as inhibition of bacterial growth incubated for 16 hrs. It is filed as functional.
For the next assay, the system named is Pseudomonas aeruginosa. Briefly: Antibacterial activity against Pseudomonas aeruginosa PAO1 assessed as inhibition of bacterial growth incubated for 16 hrs. It is filed as functional.
The test system of assay [2] is Staphylococcus aureus. Briefly: Antibacterial activity against methicillin-susceptible Staphylococcus aureus ATCC 6538 assessed as inhibition of bacterial growth incubated for 16 hrs. It is filed as functional.
A further assay has as its system Escherichia coli. Put plainly: Antibacterial activity against Escherichia coli ATCC 25922 assessed as inhibition of bacterial growth incubated for 16 hrs. It is filed as functional.
Assay [3] concerns Staphylococcus aureus. Briefly: Antibiofilm activity against methicillin-susceptible Staphylococcus aureus ATCC 6538 assessed as inhibition of biofilm formation incubated for 24 hrs by crystal violet staining based microplate reader assay. It is filed as functional.
The test system of assay [4] is Staphylococcus aureus. Put plainly: Antibiofilm activity against methicillin-susceptible Staphylococcus aureus ATCC 6538 assessed as biofilm eradication incubated for 24 hrs by crystal violet staining based microplate reader assay. It is filed as functional.
In another assay the test system is SiHa. Put plainly: Antiproliferative activity against human SiHa cells assessed as inhibition of cell growth incubated for 72 hrs by MTT assay. It is filed as functional, cell-based. On the technique in general: Tetrazolium assays rely on reduction of a dye to a coloured formazan, in cell work by metabolically active cells.
In assay [5] the test system is Staphylococcus aureus. Put plainly: Antibiofilm activity against methicillin-resistant Staphylococcus aureus ATCC 33592 assessed as inhibition of biofilm formation incubated for 24 hrs by crystal violet staining based microplate reader assay. It is filed as functional.
Another assay deals with HeLa. Put plainly: Antiproliferative activity against human HeLa cells assessed as inhibition of cell growth incubated for 72 hrs by MTT assay. It is filed as functional, cell-based.
The next assay has as its system COLO 320. Put plainly: Antiproliferative activity against human COLO 320 cells assessed as inhibition of cell growth incubated for 72 hrs by MTT assay. To be noted: COLO 320, 72 h. It is filed as functional, cell-based.
In the next assay the test system is COLO 205. Put plainly: Antiproliferative activity against human COLO 205 cells assessed as inhibition of cell growth incubated for 72 hrs by MTT assay. It is filed as functional, cell-based. Conditions: COLO 205, 72 h.
Assay [6] relates to Staphylococcus aureus. Put plainly: Antibiofilm activity against methicillin-resistant Staphylococcus aureus ATCC 33592 assessed as biofilm eradication incubated for 24 hrs by crystal violet staining based microplate reader assay. It is filed as functional.

As to `C=Cc1c(C)c(O)cc2c1CCc1c-2ccc(O)c1C`, the MIC with Staphylococcus aureus [1] is 481 µM (≈ 128 µg/mL); in the assay with Pseudomonas aeruginosa it was more than 481 µM; in the assay with Staphylococcus aureus [2], 481 µM (≈ 128 µg/mL); in the assay on Escherichia coli, more than 481 µM.

For `C=Cc1c(C)c(O)cc2c1ccc1c(C)c(O)ccc12`, the MIC is 15.1 µM (≈ 3.99 µg/mL) in the assay on Staphylococcus aureus [1], more than 484 µM in the assay on Pseudomonas aeruginosa, 15.1 µM (≈ 3.99 µg/mL) in the assay on Staphylococcus aureus [2] and more than 484 µM with Escherichia coli. The MBIC in the assay with Staphylococcus aureus [3] was 15.1 µM. Moreover, in the assay with Staphylococcus aureus [4], the MBEC was more than 484 µM.

`CC(=O)c1c(C)c(O)cc2c1ccc1c(C)c(O)ccc12`: the MIC in the assay on Staphylococcus aureus [1] is 457 µM (≈ 128 µg/mL); with Pseudomonas aeruginosa it was more than 457 µM; in the assay on Staphylococcus aureus [2], 457 µM (≈ 128 µg/mL); in the assay on Escherichia coli, more than 457 µM.

`C#Cc1c(C)c(O)cc2c1CCc1c-2ccc(O)c1C`: the MIC is 121 µM (≈ 32.1 µg/mL) in the assay on Staphylococcus aureus [1], more than 485 µM in the assay with Pseudomonas aeruginosa, 121 µM (≈ 32.1 µg/mL) with Staphylococcus aureus [2] and more than 485 µM with Escherichia coli. Moreover, in the assay with SiHa, the IC50 is 25.3 µM.

Consider `C=Cc1c(C)c(O)c(-c2cc3c(c(C)c2O)CCc2c(C=O)c(C)cc(O)c2-3)c2c1ccc1c(C)c(O)ccc12`, for which the MIC in the assay with Staphylococcus aureus [1] was 121 µM (≈ 64.2 µg/mL); in the assay with Pseudomonas aeruginosa, more than 121 µM; in the assay with Staphylococcus aureus [2], 60.5 µM (≈ 32.1 µg/mL); in the assay with Escherichia coli, more than 121 µM.

Turning to `C=Cc1c(C)c(O)cc2c1ccc1c(C)c(Oc3c(O)c(C)c(C=C)c4ccc5c(C)c(O)ccc5c34)ccc12`, the MIC in the assay on Staphylococcus aureus [1] is 122 µM (≈ 64 µg/mL); in the assay with Pseudomonas aeruginosa it was more than 243 µM; with Staphylococcus aureus [2], 122 µM (≈ 64 µg/mL); in the assay with Escherichia coli, more than 243 µM.

For the molecule `C=Cc1c(COC)c(O)cc2c1CCc1c-2ccc(O)c1C`, the MIC in the assay with Staphylococcus aureus [1] was 413 µM (≈ 122 µg/mL); in the assay with Pseudomonas aeruginosa, more than 413 µM; with Staphylococcus aureus [2], 413 µM (≈ 122 µg/mL); with Escherichia coli, more than 413 µM.

For `C=Cc1c(C)c(O)cc2c1CCc1c-2cc(-c2cc3c(c(C)c2O)CCc2c-3cc(O)c(C)c2C=C)c(O)c1C`, the MIC in the assay on Staphylococcus aureus [1] is 60.5 µM (≈ 32.1 µg/mL); in the assay with Pseudomonas aeruginosa it was more than 121 µM; in the assay on Staphylococcus aureus [2], 60.5 µM (≈ 32.1 µg/mL); in the assay with Escherichia coli, more than 121 µM. For the same molecule, the MBIC with Staphylococcus aureus [3] came to 121 µM; in the assay on Staphylococcus aureus [5] it was 242 µM.

As for `C#Cc1c(CO)c(O)cc2c1CCc1c-2ccc(O)c1C`, the MIC in the assay on Staphylococcus aureus [1] is 57.1 µM (≈ 16 µg/mL); in the assay on Pseudomonas aeruginosa it was more than 457 µM; with Staphylococcus aureus [2], 57.1 µM (≈ 16 µg/mL); in the assay on Escherichia coli, more than 457 µM. Further, in the assay with Staphylococcus aureus [3], the MBIC was 114.3 µM. In addition, the IC50 in the assay with HeLa, with COLO 320 and in the assay with COLO 205 was 12.3 µM in each case.

For the molecule `C=Cc1c(C)cc(O)c2c1CCc1c-2ccc(O)c1C`, the MIC in the assay on Staphylococcus aureus [1] was 30 µM (≈ 7.99 µg/mL); in the assay on Pseudomonas aeruginosa, more than 480 µM; in the assay on Staphylococcus aureus [2], 30 µM (≈ 7.99 µg/mL); with Escherichia coli, more than 480 µM. The MBIC in the assay on Staphylococcus aureus [3] and in the assay on Staphylococcus aureus [5] was 60 µM each time. Besides, the IC50 in the assay on HeLa, in the assay on COLO 320 and with COLO 205 was 12.3 µM in each case.

Consider `C=Cc1c(COC)c(O)cc2c1ccc1c(C)c(O)ccc12`, for which the minimal inhibitory concentration (MIC) with Staphylococcus aureus [1] was 218 µM (≈ 64 µg/mL); with Pseudomonas aeruginosa, more than 435 µM; in the assay with Staphylococcus aureus [2], 218 µM (≈ 64 µg/mL); with Escherichia coli, more than 435 µM.

For the molecule `C=CC1=C(C)C(=O)C=C2c3ccc(O)c(C)c3CC[C@@]21O`, the MIC is 56.8 µM (≈ 16 µg/mL) with Staphylococcus aureus [1], more than 454 µM with Pseudomonas aeruginosa, 56.8 µM (≈ 16 µg/mL) in the assay on Staphylococcus aureus [2] and more than 454 µM in the assay with Escherichia coli. Moreover, the MBIC in the assay on Staphylococcus aureus [3] was 113.5 µM.

In the case of `C#Cc1c(C)c(O)cc2c1ccc1c(C)c(O)ccc12`, the MIC with Staphylococcus aureus [1] is 15.3 µM (≈ 4.01 µg/mL); in the assay with Pseudomonas aeruginosa, more than 488 µM; in the assay on Staphylococcus aureus [2], 15.3 µM (≈ 4.01 µg/mL); in the assay on Escherichia coli, more than 488 µM. Moreover, the MBIC with Staphylococcus aureus [3] stood at 15.3 µM. For the same molecule, in the assay with Staphylococcus aureus [4], the MBEC is more than 488 µM.

In the case of `C=Cc1c(CO)c(O)cc2c1ccc1c(C)c(O)ccc12`, the MIC with Staphylococcus aureus [1] was 114 µM (≈ 32 µg/mL); in the assay on Pseudomonas aeruginosa it was more than 229 µM; in the assay on Staphylococcus aureus [2] it was 114 µM (≈ 32 µg/mL); with Escherichia coli, more than 229 µM. In the assay with Staphylococcus aureus [3], the MBIC is 114.3 µM.

On to `C=Cc1c(C)cc(O)c2c1CCc1c-2cc(-c2c(O)c(C)c(C=C)c3ccc4c(C)c(O)ccc4c23)c(O)c1C`, for which the MIC in the assay on Staphylococcus aureus [1] is 60.5 µM (≈ 32 µg/mL); in the assay on Pseudomonas aeruginosa, more than 242 µM; in the assay on Staphylococcus aureus [2], 60.5 µM (≈ 32 µg/mL); with Escherichia coli, more than 242 µM. In addition, the MBIC with Staphylococcus aureus [3] and in the assay with Staphylococcus aureus [5] was 60.5 µM in each case. The IC50 in the assay on HeLa, with COLO 320 and with COLO 205 was 12.3 µM throughout.

Take `C=Cc1c(C)c(O)cc2c3c(ccc12)C(C)(O)C(=O)C=C3` (stereo not drawn): the MIC in the assay with Staphylococcus aureus [1] was 229 µM (≈ 64.2 µg/mL); in the assay on Pseudomonas aeruginosa it was more than 458 µM; with Staphylococcus aureus [2], 229 µM (≈ 64.2 µg/mL); in the assay with Escherichia coli it was more than 458 µM.

Turning to `C#Cc1c(CO)c(O)cc2c1ccc1c(C)c(O)ccc12`, the MIC with Staphylococcus aureus [1] was 115 µM (≈ 32 µg/mL); in the assay on Pseudomonas aeruginosa, more than 230 µM; in the assay with Staphylococcus aureus [2], 57.5 µM (≈ 16 µg/mL); in the assay on Escherichia coli, more than 230 µM. The MBIC in the assay on Staphylococcus aureus [3] was 115 µM; with Staphylococcus aureus [5], 114.3 µM.

Turning to `C=Cc1c(CO)cc(O)c2c1CCc1c-2ccc(O)c1C`, the MIC in the assay on Staphylococcus aureus [1] was 114 µM (≈ 32 µg/mL); in the assay on Pseudomonas aeruginosa, more than 454 µM; with Staphylococcus aureus [2] it was 114 µM (≈ 32 µg/mL); in the assay on Escherichia coli, more than 454 µM. For the same molecule, the MBIC with Staphylococcus aureus [3] and in the assay on Staphylococcus aureus [5] was 227 µM in each case. Also, the IC50 with HeLa, with COLO 320 and in the assay on COLO 205 was 12.3 µM throughout.

In the case of `C=Cc1c(C)c(Oc2c(O)c(C)c(C=C)c3ccc4c(C)c(O)ccc4c23)cc2c1ccc1c(C)c(O)ccc12`, the MIC in the assay with Staphylococcus aureus [1] was 60.5 µM (≈ 31.9 µg/mL); in the assay on Pseudomonas aeruginosa, more than 121 µM; with Staphylococcus aureus [2], 60.5 µM (≈ 31.9 µg/mL); in the assay on Escherichia coli it was more than 121 µM. In addition, the MBIC in the assay on Staphylococcus aureus [3] is 121 µM.

Turning to `O=C(O)c1cn(C2CC2)c2cc(N3CCNCC3)c(F)cc2c1=O` [CIPROFLOXACIN], the MIC in the assay with Staphylococcus aureus [1], in the assay on Pseudomonas aeruginosa and with Staphylococcus aureus [2] was 0.37 µM (≈ 0.123 µg/mL) each time. Also, in the assay with Staphylococcus aureus [3], the MBIC stood at 0.75 µM. For the same molecule, the MBEC with Staphylococcus aureus [4] was more than 386.7 µM.

Consider `CN[C@H](CC(C)C)C(=O)N[C@H]1C(=O)N[C@@H](CC(N)=O)C(=O)N[C@H]2C(=O)N[C@H]3C(=O)N[C@H](C(=O)N[C@H](C(=O)O)c4cc(O)cc(O)c4-c4cc3ccc4O)[C@H](O)c3ccc(c(Cl)c3)Oc3cc2cc(c3O[C@@H]2O[C@H](CO)[C@@H](O)[C@H](O)[C@H]2O[C@H]2C[C@](C)(N)[C@H](O)[C@H](C)O2)Oc2ccc(cc2Cl)[C@H]1O` [VANCOMYCIN], for which the results for the MIC in the assay on Staphylococcus aureus [1], with Pseudomonas aeruginosa and in the assay with Escherichia coli were 1.38 µM (≈ 2 µg/mL), 1770 µM (≈ 2560 µg/mL) and 177 µM (≈ 256 µg/mL), respectively. For the same molecule, the MBEC in the assay on Staphylococcus aureus [6] and in the assay with Staphylococcus aureus [4] was more than 88.3 µM each time. Also, the MBIC in the assay on Staphylococcus aureus [5] came out at 1.38 µM.
